Like-named read-outs stand apart in the source and are kept apart here.
Target: SAE (Homo sapiens (Human), UniProt Q9UBT2)
Experiment: In vitro inhibitory activity assay against SAE (SUMO-2/3 immunofluorescence in HCT116 cells)
Type: cell-based
Settings: 6 h incubation, read-out: SUMO IF IC50
Summary of the method: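 HCT116 cells treated with compounds for 6 h at 37 °C, then fixed, permeabilized and immunostained for SUMO-2/3 with FITC secondary detection. Fluorescence compared with DMSO control to give inhibition rate and IC50.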

Sequence of SAE (Q9UBT2 whole entry): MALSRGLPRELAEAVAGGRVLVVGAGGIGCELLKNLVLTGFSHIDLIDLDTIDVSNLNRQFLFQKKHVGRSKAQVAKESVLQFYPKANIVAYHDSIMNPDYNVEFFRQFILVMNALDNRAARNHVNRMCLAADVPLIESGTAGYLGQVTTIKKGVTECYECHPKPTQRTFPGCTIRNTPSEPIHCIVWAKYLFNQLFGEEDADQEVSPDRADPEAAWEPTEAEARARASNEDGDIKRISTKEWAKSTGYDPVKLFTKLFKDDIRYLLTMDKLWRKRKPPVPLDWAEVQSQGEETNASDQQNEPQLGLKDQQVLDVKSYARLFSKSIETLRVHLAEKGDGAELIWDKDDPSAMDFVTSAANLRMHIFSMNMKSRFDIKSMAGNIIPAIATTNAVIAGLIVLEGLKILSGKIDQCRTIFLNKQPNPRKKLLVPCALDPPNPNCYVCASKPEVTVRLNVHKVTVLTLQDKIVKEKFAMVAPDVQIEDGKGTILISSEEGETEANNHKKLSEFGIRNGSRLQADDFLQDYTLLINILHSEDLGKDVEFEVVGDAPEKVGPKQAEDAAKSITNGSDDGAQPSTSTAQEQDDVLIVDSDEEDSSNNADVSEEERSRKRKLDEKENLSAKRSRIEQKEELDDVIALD
Sequence of SAE (Q9UBE0 whole entry partner): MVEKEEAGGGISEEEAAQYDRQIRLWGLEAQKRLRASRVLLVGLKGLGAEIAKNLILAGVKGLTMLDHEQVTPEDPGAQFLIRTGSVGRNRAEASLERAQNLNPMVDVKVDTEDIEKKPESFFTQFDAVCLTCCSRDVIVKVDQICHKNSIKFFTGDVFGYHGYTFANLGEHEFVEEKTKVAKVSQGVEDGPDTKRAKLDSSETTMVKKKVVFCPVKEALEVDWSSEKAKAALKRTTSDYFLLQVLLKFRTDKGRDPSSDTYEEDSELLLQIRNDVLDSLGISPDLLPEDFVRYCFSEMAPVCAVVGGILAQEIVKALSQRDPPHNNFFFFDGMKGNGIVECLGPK

SMILES: NS(=O)(=O)OC[C@H]1C[C@@H](Nc2ncncc2C(=O)c2cc3c(s2)CC[C@]32NCCc3ccc(C4CC4)cc32)C[C@@H]1O [Compound 224]
- IC50 (class symbols): 50 to 200 nM

SMILES: NS(=O)(=O)OC[C@H]1C[C@@H](Nc2ncncc2C(=O)c2cc3c(s2)CC[C@]32NCCc3ccc(C(F)(F)F)cc32)C[C@@H]1O [Compound 226]
- IC50 (class symbols): 50 to 200 nM

SMILES: NS(=O)(=O)OC[C@H]1C[C@@H](Nc2ncncc2C(=O)c2cc3c(s2)CCCC32NCCc3cc(Cl)ncc32)C[C@@H]1O (stereo partly shown) [Compound 35]
- IC50 (class symbols): 50 to 200 nM

SMILES: NS(=O)(=O)OC[C@H]1C[C@@H](Nc2ncncc2C(=O)c2cc3c(s2)CSC[C@@]32NCCc3ccccc32)C[C@@H]1O [Compound 86]
- IC50 (class symbols): > 200 nM

SMILES: NS(=O)(=O)OC[C@H]1C[C@@H](Nc2ncncc2C(=O)c2cc3c(s2)CSC[C@]32NCCc3ccc(Cl)nc32)C[C@@H]1O [Compound 147]
- IC50 (class symbols): ≤ 50 nM

SMILES: NS(=O)(=O)OC[C@H]1C[C@@H](Nc2ncncc2C(=O)c2cc3c(s2)CN(C2CC2)C[C@@]32OCCc3ccc(F)cc32)C[C@@H]1O [Compound 275]
- IC50 (class symbols): > 200 nM

SMILES: NS(=O)(=O)OC[C@H]1C[C@@H](Nc2ncncc2C(=O)c2cc3c(s2)CN(CC(F)(F)F)CC32NCCc3ccc(Cl)cc32)C[C@@H]1O (stereo partly shown) [Compound 187]
- IC50 (class symbols): ≤ 50 nM

SMILES: NS(=O)(=O)OC[C@H]1C[C@@H](Nc2ncncc2C(=O)c2cc3c(s2)COC[C@]32NCCc3ccc(Cl)c(Cl)c32)C[C@@H]1O [Compound 96]
- IC50 (class symbols): 50 to 200 nM

SMILES: NS(=O)(=O)OC[C@H]1C[C@@H](Nc2ncncc2C(=O)c2cc3c(s2)C=CC32NCCc3ccc(F)cc32)C[C@@H]1O (stereo partly shown) [Compound 79]
- IC50 (class symbols): 50 to 200 nM

SMILES: NS(=O)(=O)OC[C@H]1C[C@@H](Nc2ncncc2C(=O)c2cc3c(s2)CCC[C@]32NC3(CC3)Cc3ccc(Cl)cc32)C[C@@H]1O [Compound 220]
- IC50 (class symbols): 50 to 200 nM

SMILES: Cc1cc2c(cc1Cl)[C@@]1(CCc3sc(C(=O)c4cncnc4N[C@@H]4C[C@H](COS(N)(=O)=O)[C@@H](O)C4)cc31)NCC2 [Compound 230]
- IC50 (class symbols): ≤ 50 nM

SMILES: CN1Cc2sc(C(=O)c3cncnc3N[C@@H]3C[C@H](COS(N)(=O)=O)[C@@H](O)C3)cc2[C@@]2(C1)NCCc1ccc(Cl)cc12 [Compound 113]
- IC50 (numeric values): > 1000 nM

SMILES: NS(=O)(=O)OC[C@H]1C[C@@H](Nc2ncncc2C(=O)c2cc3c(s2)CN(CC(F)(F)F)C[C@]32NCCc3ccc(Cl)cc32)C[C@@H]1O [Compound 189]
- IC50 (numeric values): 24.5 nM

SMILES: NS(=O)(=O)OC[C@H]1C[C@@H](Nc2ncncc2C(=O)c2cc3c(s2)CC=CC32NCCc3ccc(Cl)cc32)C[C@@H]1O (stereo partly shown) [Compound 37]
- IC50 (class symbols): ≤ 50 nM

SMILES: NS(=O)(=O)OC[C@H]1C[C@@H](Nc2ncncc2C(=O)c2cc3c(s2)C=CCC32NCCc3ccc(Cl)cc32)C[C@@H]1O (stereo partly shown) [Compound 36]
- IC50 (class symbols): ≤ 50 nM

SMILES: N#Cc1cc2c(cc1Cl)C1(CCCc3sc(C(=O)c4cncnc4N[C@@H]4C[C@H](COS(N)(=O)=O)[C@@H](O)C4)cc31)NCC2 (stereo partly shown) [Compound 30]
- IC50 (class symbols): 50 to 200 nM

SMILES: Cc1sc(C(=O)c2cncnc2N[C@@H]2C[C@H](COS(N)(=O)=O)[C@@H](O)C2)cc1[C@@H]1NCCc2ccc(Cl)cc21 [TAK-981, reference compound]
- IC50 (numeric values): 53.2 nM

SMILES: C=CCN1Cc2sc(C(=O)c3cncnc3N[C@@H]3C[C@H](COS(N)(=O)=O)[C@@H](O)C3)cc2[C@@]2(C1)NCCc1ccc(Cl)cc12 [Compound 191]
- IC50 (numeric values): > 1000 nM

SMILES: NS(=O)(=O)OC[C@H]1C[C@@H](Nc2ncncc2C(=O)c2cc3c(s2)CC[C@]32NCCc3ccncc32)C[C@@H]1O [Compound 235]
- IC50 (class symbols): 50 to 200 nM

SMILES: NS(=O)(=O)OC[C@H]1C[C@@H](Nc2ncncc2C(=O)c2cc3c(s2)CCCC32NCC(=O)c3ccc(Cl)cc32)C[C@@H]1O (stereo partly shown) [Compound 41]
- IC50 (class symbols): 50 to 200 nM

SMILES: NS(=O)(=O)OC[C@H]1C[C@@H](Nc2ncncc2C(=O)c2cc3c(s2)CCC[C@@]32NCCc3ccccc32)C[C@@H]1O [Compound 2]
- IC50 (class symbols): > 200 nM

SMILES: Cc1cc2c(cc1Cl)C1(CCCc3sc(C(=O)c4cncnc4N[C@@H]4C[C@H](COS(N)(=O)=O)[C@@H](O)C4)cc31)NCC2 (stereo partly shown) [Compound 29]
- IC50 (class symbols): 50 to 200 nM

SMILES: NS(=O)(=O)OC[C@H]1C[C@@H](Nc2ncncc2C(=O)c2cc3c(s2)COC[C@@]32NCCc3ccc(F)cc32)C[C@@H]1O [Compound 17]
- IC50 (numeric values): > 1000 nM

SMILES: C#CCN1Cc2sc(C(=O)c3cncnc3N[C@@H]3C[C@H](COS(N)(=O)=O)[C@@H](O)C3)cc2[C@@]2(C1)NCCc1ccc(Cl)cc12 [Compound 194]
- IC50 (numeric values): > 1000 nM

SMILES: NS(=O)(=O)OC[C@H]1C[C@@H](Nc2ncncc2C(=O)c2cc3c(s2)CCC[C@]32NCCc3cc(Cl)ncc32)C[C@@H]1O [Compound 215]
- IC50 (class symbols): 50 to 200 nM

SMILES: NS(=O)(=O)OC[C@H]1C[C@@H](Nc2ncncc2C(=O)c2cc3c(s2)C=C[C@@]32OCCc3ccc(Cl)cc32)C[C@@H]1O [Compound 296]
- IC50 (class symbols): > 200 nM

SMILES: NS(=O)(=O)OC[C@H]1C[C@@H](Nc2ncncc2C(=O)c2cc3c(s2)CC[C@]32NC3(CC3)Cc3ccc(Cl)cc32)C[C@@H]1O [Compound 241]
- IC50 (class symbols): 50 to 200 nM

SMILES: NS(=O)(=O)OC[C@H]1C[C@@H](Nc2ncncc2C(=O)c2cc3c(s2)CC[C@]32NCCc3cc(Cl)c(F)cc32)C[C@@H]1O [Compound 234]
- IC50 (class symbols): ≤ 50 nM

SMILES: NS(=O)(=O)OC[C@H]1C[C@@H](Nc2ncncc2C(=O)c2cc3c(s2)CCC[C@]32OCCc3ccc(F)cc32)C[C@@H]1O [Compound 249]
- IC50 (class symbols): ≤ 50 nM

SMILES: NS(=O)(=O)OC[C@H]1C[C@@H](Nc2ncncc2C(=O)c2cc3c(s2)CCCC32OCCc3ccccc32)C[C@@H]1O (stereo partly shown) [Compound 244]
- IC50 (class symbols): > 200 nM

SMILES: N#Cc1ccc2c(c1)[C@]1(C=Cc3sc(C(=O)c4cncnc4N[C@@H]4C[C@H](COS(N)(=O)=O)[C@@H](O)C4)cc31)OCC2 [Compound 299]
- IC50 (class symbols): > 200 nM

SMILES: NS(=O)(=O)OC[C@H]1C[C@@H](Nc2ncncc2C(=O)c2cc3c(s2)CCCC32NC3(CC3)Cc3ccc(Cl)cc32)C[C@@H]1O (stereo partly shown) [Compound 40]
- IC50 (class symbols): 50 to 200 nM

SMILES: NS(=O)(=O)OC[C@H]1C[C@@H](Nc2ncncc2C(=O)c2cc3c(s2)CCC[C@@]32NCC3(CC3)c3ccc(Cl)cc32)C[C@@H]1O [Compound 152]
- IC50 (class symbols): > 200 nM

SMILES: NS(=O)(=O)OC[C@H]1C[C@@H](Nc2ncncc2C(=O)c2cc3c(s2)CCC32NCCc3ccncc32)C[C@@H]1O (stereo partly shown) [Compound 76]
- IC50 (class symbols): 50 to 200 nM

SMILES: NS(=O)(=O)OC[C@H]1C[C@@H](Nc2ncncc2C(=O)c2cc3c(s2)CCC[C@]32NCCc3cc(Cl)c(Cl)cc32)C[C@@H]1O [Compound 208]
- IC50 (class symbols): ≤ 50 nM

SMILES: NS(=O)(=O)OC[C@H]1C[C@@H](Nc2ncncc2C(=O)c2cc3c(s2)CC2(CC2)CC32NCCc3ccc(Cl)cc32)C[C@@H]1O (stereo partly shown) [Compound 151]
- IC50 (class symbols): ≤ 50 nM

SMILES: N#Cc1ccc2c(c1)[C@]1(CCc3sc(C(=O)c4cncnc4N[C@@H]4C[C@H](COS(N)(=O)=O)[C@@H](O)C4)cc31)NCC2 [Compound 53]
- IC50 (class symbols): > 200 nM

SMILES: CC(C)N1Cc2sc(C(=O)c3cncnc3N[C@@H]3C[C@H](COS(N)(=O)=O)[C@@H](O)C3)cc2[C@]2(C1)OCCc1ccc(Cl)cc12 [Compound 273]
- IC50 (class symbols): ≤ 50 nM

SMILES: NS(=O)(=O)OC[C@H]1C[C@@H](Nc2ncncc2C(=O)c2cc3c(s2)CCC[C@@]32NCCc3ccc(F)cc32)C[C@@H]1O [Compound 8]
- IC50 (numeric values): > 1000 nM

SMILES: [2H]C1([2H])Cc2ccc(Cl)cc2[C@@]2(C=Cc3sc(C(=O)c4cncnc4N[C@@H]4C[C@H](COS(N)(=O)=O)[C@@H](O)C4)cc32)N1 [Compound 237]
- IC50 (class symbols): ≤ 50 nM

SMILES: NS(=O)(=O)OC[C@H]1C[C@@H](Nc2ncncc2C(=O)c2cc3c(s2)COC[C@]32NCCc3cc(Cl)c(Cl)cc32)C[C@@H]1O [Compound 99]
- IC50 (class symbols): 50 to 200 nM

SMILES: CC(C)N1Cc2sc(C(=O)c3cncnc3N[C@@H]3C[C@H](COS(N)(=O)=O)[C@@H](O)C3)cc2[C@]2(C1)NCCc1ccc(Cl)cc12 [Compound 186]
- IC50 (numeric values): 16.3 nM

SMILES: NS(=O)(=O)OC[C@H]1C[C@@H](Nc2ncncc2C(=O)c2cc3c(s2)CC[C@]32NCCc3cc(F)c(Cl)cc32)C[C@@H]1O [Compound 228]
- IC50 (class symbols): ≤ 50 nM

SMILES: NS(=O)(=O)OC[C@H]1C[C@@H](Nc2ncncc2C(=O)c2cc3c(s2)CCC[C@@]32NCCc3cnc(Cl)cc32)C[C@@H]1O [Compound 134]
- IC50 (class symbols): > 200 nM

SMILES: N#Cc1ccc2c(c1)[C@@]1(C=Cc3sc(C(=O)c4cncnc4N[C@@H]4C[C@H](COS(N)(=O)=O)[C@@H](O)C4)cc31)OCC2 [Compound 300]
- IC50 (class symbols): ≤ 50 nM

SMILES: NS(=O)(=O)OC[C@H]1C[C@@H](Nc2ncncc2C(=O)c2cc3c(s2)CCC[C@]32NCCc3cc(F)c(Cl)cc32)C[C@@H]1O [Compound 207]
- IC50 (class symbols): ≤ 50 nM

SMILES: NS(=O)(=O)OC[C@H]1C[C@@H](Nc2ncncc2C(=O)c2cc3c(s2)OC[C@@]32NCCc3ccc(F)cc32)C[C@@H]1O [Compound 59]
- IC50 (class symbols): > 200 nM

SMILES: NS(=O)(=O)OC[C@H]1C[C@@H](Nc2ncncc2C(=O)c2cc3c(s2)CCC[C@]32NCC3(CC3)c3ccc(Cl)cc32)C[C@@H]1O [Compound 153]
- IC50 (class symbols): ≤ 50 nM

SMILES: NS(=O)(=O)OC[C@H]1C[C@@H](Nc2ncncc2C(=O)c2cc3c(s2)COCC32NCCc3ccc(Cl)c(Cl)c32)C[C@@H]1O (stereo partly shown) [Compound 94]
- IC50 (class symbols): 50 to 200 nM

SMILES: NS(=O)(=O)OC[C@H]1C[C@@H](Nc2ncncc2C(=O)c2cc3c(s2)OC[C@@]32NCCc3ccc(Cl)cc32)C[C@@H]1O [Compound 62]
- IC50 (class symbols): > 200 nM

SMILES: CC(C)N1Cc2sc(C(=O)c3cncnc3N[C@@H]3C[C@H](COS(N)(=O)=O)[C@@H](O)C3)cc2C2(C1)OCCc1ccc(Cl)cc12 (stereo partly shown) [Compound 271]
- IC50 (class symbols): 50 to 200 nM

SMILES: NS(=O)(=O)OC[C@H]1C[C@@H](Nc2ncncc2C(=O)c2cc3c(s2)CC[C@]32NCCc3cc(Cl)ncc32)C[C@@H]1O [Compound 236]
- IC50 (class symbols): 50 to 200 nM

Source: patent US20260035382A1, “COMPOUNDS AS SUMO ACTIVATING ENZYME INHIBITORS” (WIGEN BIOMEDICINE TECHNOLOGY (SHANGHAI) CO., LTD., priority 2022, published 2026)
